From US8975370B2, “Inhibitor proteins of a protease and use thereof” (Universite de Lausanne, priority 2003, dated 2015)
*1 amine or outer side, *2 acyl side, *3 side chain or, on linkers, in order; H or OH if unused. Where a SMILES comes first, the peptide text is derived from it. The star is where a group is joined. AMC = Cc1cc(=O)oc2cc(N*)ccc12; Suc = O=C(CCC(=O)[*:2])[*:1]; MeOSuc = COC(=O)CCC(=O)*

Columns and labels:
[1] = test system: human chymotrypsin (Chtr); experiment: Km of chymotrypsin for its fluorogenic substrate (used for ka correction, eq 2); type: biochemical; details: substrate Suc-AAPF-AMC, kinetics in 50 mM Tris pH 7.5, 150 mM NaCl, 0.05% Triton X-100, 0.01% BSA, 25° C.
Excerpt: (§1) hK2 and hK3 (PSA) were purified from human semen as previously described (Frenette G, Gervais Y, Tremblay R R, Dube J Y. 1998 “Contamination of purified prostate-specific antigen preparations by kallikrein hK2” J Urol 159, 1375-8), anti-hK2 and anti-PSA monoclonal antibodies were a gift from Professor R R Tremblay, Laval University, Canada. Human chymotrypsin (Chtr), urokinase plasminogen activator (uPA), human kallikrein hK1, human plasma kallikrein (PK), human neutrophil elastase (HNE) and commercial ACT (human plasma α1-antichymotrypsin) were purchased from Calbiochem. […]
(§2) The association rate constants for interactions of hK2, chymotrypsin, PK and HNE with different rACTs were determined under pseudo-first order conditions using the progress curve method (Morrison J F, Walsh C T. 1988 “The behavior and significance of slow-binding enzyme inhibitors” Adv. Enzymol. Relat. Areas Mol. Biol 61, 201-301). […] Each reaction was made in reaction buffer (50 mM Tris pH 7.5, 150 mM NaCl, 0.05% Triton X-100, 0.01% BSA) at 25° C. for 45 min and the rate of product formation was measured using a FLx800 fluorescence 96-well microplate reader (Biotek, USA). […]
(§3) For each inhibitor, a kobs was calculated, for four different concentrations of inhibitors, by non linear regression of the data using equation 1. […]

[2] = target: T1, human neutrophil elastase (HNE) (Homo sapiens, UniProt P08246); experiment: Km of HNE for its fluorogenic substrate (used for ka correction, eq 2); type: biochemical; details: substrate MeOSuc-AAPV-AMC, kinetics in 50 mM Tris pH 7.5, 150 mM NaCl, 0.05% Triton X-100, 0.01% BSA, 25° C.
T1 construct: substrate MeOSuc-AAPV-AMC
T1 sequence (P08246 30-267): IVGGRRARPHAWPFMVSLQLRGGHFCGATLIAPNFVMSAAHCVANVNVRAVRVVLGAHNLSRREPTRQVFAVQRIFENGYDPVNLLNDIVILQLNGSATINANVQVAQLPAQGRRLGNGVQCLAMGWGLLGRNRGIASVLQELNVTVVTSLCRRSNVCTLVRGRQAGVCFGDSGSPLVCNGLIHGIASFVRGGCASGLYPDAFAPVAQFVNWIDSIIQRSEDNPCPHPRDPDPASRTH
Excerpt: as §1, §2, §3

Cc1cc(=O)oc2cc(NC(=O)[C@H](Cc3ccccc3)NC(=O)[C@@H]3CCCN3C(=O)[C@H](C)NC(=O)[C@H](C)NC(=O)CCC(=O)O)ccc12 [Suc-AAPF-AMC, Suc-Ala-Ala-Pro-Phe-AMC] (Suc-AAPF-{AMC})
Km [1]: 145 µM

COC(=O)CCC(=O)N[C@@H](C)C(=O)N[C@@H](C)C(=O)N1CCC[C@H]1C(=O)N[C@H](C(=O)Nc1ccc2c(C)cc(=O)oc2c1)C(C)C [MeOSuc-AAPV-AMC, MeOSuc-Ala-Ala-Pro-Val-AMC] (MeOSuc-AAPV-{AMC})
Km [2]: 130 µM
